Laboratory results as given in patent publication US20180318383A1, “PEPTIDE HAVING NEURONAL LOSS PREVENTION AND REGENERATION EFFECTS, AND COMPOSITION CONTAINING SAME” (GEMVAX & KAEL CO., LTD., priority 2015, published 2018).

Assays:
NSCs = experiment: Cell viability of NSCs (CCK-8, MTT, LDH); type: cell-based, rat; conditions: 48 hours
Method: NSCs were isolated from the brain of a rat embryo, cultured and developed. The NSC culture was performed in the same manner as to be described below. Briefly describing, a rat embryo was obtained on day 13 of the embryonic period, and the brain was quickly removed and placed in a petri dish containing cold phosphate-buffered physiological saline (Hank's balanced salt solution; HBSS).
Single cells were isolated from the cerebral cortex, the lateral ganglion eminence, and the embryonic midbrain. These cells were put into a dish pre-treated with L-ornithine and fibronectin, containing calcium and magnesium-free phosphate-buffered physiological saline (PBS) at a density of 20,000 cells/cm^2. In addition, the cells were cultured in an N2 medium (DMEM F/12, […] insulin, 100 mg/L transferrin, 30 nM selenite, […], 20 nM progesterone, 0.2 mM ascorbic acid, […], 8.6 mM D(+) glucose, and […]). The culture was maintained in humidified and 5% CO2 conditions for 4 to 6 days at 37° C.
NSCs were divided into 6 samples, and each sample was treated with […] Aβ25-30 oligomers for 48 hours to identify a suitable concentration. […] Briefly, Aβ25-30 was dissolved in hexafluoroisopropanol to reach a concentration of 1 mM. In addition, the prepared solution was dispensed using a sterilized ultramicrocentrifuge tube. […]
To identify the PEP1 effect in NSCs, PEP1 was treated at various concentrations of 0, 1, 10, 50, 100, and 200 μM for 48 hours. […] The plate was gently washed with PBS several times, and cell viability was measured using a cell counting kit-8 (CCK-8), MTT and lactate dehydrogenase (LDH).
CCK-8 was used as a method for counting living cells by bonding 2-[2-methoxy-4-nitrophenyl]-3-[4-nitrophenyl]-5-[2,4-disulfophenyl]-2H-tetrazolium, monosodium salt (WST-8) with 1-methoxyphenazinium methylsulfate (PMS). […] Cell viability was evaluated by measuring absorbance at 450 nm. […] Cell viability was evaluated by measuring absorbance at 490 nm and reference absorbance at 690 nm. […]

[1] = test system: AD transgenic mice (3XTg-AD); experiment: Y-maze test; type: in vivo
Method: To test the efficacy of PEP1 on AD, AD transgenic mice (3XTg-AD) were purchased from Jackson Laboratory. Genetic characteristics of the transgenic mice are as follows: B6; 129-Psen1tm1Mpm Tg(APPSwe, tauP301L)1Lfa/Mmjax. […] One week after mice were confirmed as pregnant, new mice were delivered and weaned for 3 weeks. Two weeks later, mature mice were obtained.
During the preliminary breeding and the entire period of the experiment, a temperature was maintained at 23±2° C. and a relative humidity was maintained at 60±10%, and then the mice were raised under a 12-hour dark/light cycle. Experimental animals were divided into five groups, and each group included 10 animals. The divided experimental groups are as follows. […]
The PEP1, physiological saline, donepezil and scramble peptide were subcutaneously injected at each concentration three times a week for two months from the age of 12 months, and then two months after the injection, cognitive/memory behavior tests (passive avoidance test and Y maze test) were performed to examine a degree of improvement in cognitive function and memory function. After the brain was extracted to separate the hippocampus, the amounts of amyloid beta in the hippocampus and the whole brain, and the amounts of an amyloid beta oligomer and NFT generated by tau hyperphosphorylation were determined by western blotting and immunostaining. […]

Sequence: EARPALLTSRLRFIPK (homo sapiens) [PEP1, hTERT-derived peptide consisting of 16 amino acids, telomerase location [611-626]]
- survival ability of NSCs (NSCs; 20 μM Aβ25-35 + PEP1 up to 100 μM, vs 20 μM Aβ25-35 only, MTT, CCK-8, LDH): gradually increased
- cell survival ability (NSCs; NSCs, PEP1 alone 0-200 μM, CCK-8, up to 100 μM): not influenced
- behavioral judgment (Y-maze test) ([1]; 3XTg-AD mice, treated from age 12 months, vs control and Donepezil): excellent behavioral judgment
- ability to select a new path (spontaneous alteration (%)), Y-maze test ([1]; severe AD models, 20-month-old or older 3XTg-AD mice, PEP1 1 mg/kg s.c., vs physiological saline): increased
